Article PMC4854855 (EJNMMI Research, 2016)
Values joined by “and” are separate entries in the source; they are usually repeats but may differ in a detail not shown here. Equal values may be shown once. “Also recorded” adds a separate entry of the source. Blank lines part the entries; values can stand above or below the compound they belong to.

Assays:
[1] = Storage stability of labeling precursor; type: physicochemical; conditions: solid, stored at 4 °C
PSMA+ LNCaP tumor [2] = assay: Dynamic PET imaging in LNCaP tumor-bearing BALB/c nude mice; type: in vivo, mouse
Experimental: PET imaging experiments were carried out in LNCaP and PC3 tumor-bearing Balb/c nude mice (Charles River Laboratories, Quebec, Canada). Male Balb/c nude mice were housed under standard conditions with free access to standard food and tap water. LNCaP and PC3 cells (5 × 10^6 cells in 100 μL of PBS) were injected into the upper left flank of the mice (20–24 g). Before injecting LNCaP cells, the mice received a 1.0-mg/pellet containing testosterone in a 60-day release preparation (Innovative Research of America, Sarasota, FL, USA). The pellet was implanted subcutaneously into the upper right flank in order to provide a constant level of testosterone needed by the androgen receptor positive LNCaP cells. Tumors reached sizes of approximately 1 cm^3 which were suitable for all in vivo experiments. General anesthesia of tumor-bearing mice was induced with inhalation of isoflurane in 40 % oxygen/60 % nitrogen (gas flow = […]), and the mice were subsequently fixed in prone position. The body temperature was kept constant at 37 °C for the entire experiment. The mice were positioned in a prone position into the center of the field of view. A transmission scan for attenuation correction was not acquired. […] For blocking studies, the animals were pre-dosed with 300 μg of DCFPyL in 50 μL saline about 10 min prior to radiotracer injection. Data acquisition was performed over 60 min in a 3D list mode. The dynamic list mode data were sorted into sinograms with 53 time frames (10 × 2, 8 × 5, 6 × 10, 6 × 20, 8 × 60, 10 × 120, 5 × 300 s). The frames were reconstructed using maximum a posteriori (MAP) as reconstruction mode. The pixel size was 0.085 × 0.085 × 0.121 mm^3 (256 × 256 × 63), and the resolution in the center of the field of view was 1.8 mm. No correction for partial volume effects was applied. The image files were processed using the ROVER v 2.0.51 software (ABX GmbH, Radeberg, Germany). Masks defining 3D regions of interest (ROI) were set and the ROIs were defined by thresholding. Mean standardized uptake values [SUV]mean = (activity/mL tissue)/(injected activity/body weight), mL/g, were calculated for each ROI. Time-activity curves (TACs) were generated for the dynamic scans only. All semi-quantified PET data are presented as means ± SEM. Statistical difference for the blocking study was tested by unpaired Student’s t test and was considered significant for P < 0.05.

PSMA+ LNCaP cells = assay: Cell-specific internalization experiment in LNCaP cells; type: cell-based
Experimental: (§1) 10^5 LNCaP or PC3 cells were seeded in poly-D-lysine-coated 12-well plates 24–48 h before the assay so that cells could reach 95 % confluency. The medium was removed 1 h before the assay, and the cells were rinsed twice with PBS. After the addition of Krebs buffer (1 mL) to each well, the cells were incubated at 37 °C. […] Cellular uptake was stopped by removing incubation media from the cells and washing the wells twice with ice-cold PBS buffer (1 mL). Surface-bound radioactivity was removed from the cells through incubating the cells twice with 0.5 mL glycine-HCl in PBS (50 mM, pH 2.5) for 5 min at 37 °C. Cells were washed again with ice-cold PBS before the addition of radio-immunoprecipitation assay (RIPA) buffer (400 μL) to lyse the cells. Cells were returned into the incubator for 10 min, and cell lysates were collected for counting. Radioactivity of surface-bound and internalized fraction was measured in a WIZARD2 Automatic gamma counter (Perkin Elmer, Waltham, MA, USA). Total protein concentration in the samples was determined by the bicinchoninic acid method (BCA; Pierce, Thermo Scientific 23227) using bovine serum albumin (800, 600, 400, 300, 200, 100, 50 μg/mL, blank) as protein standard. Data are expressed as percent of total uptake per 1 mg protein (% of total uptake/mg protein).

[3] = Radiometabolite analysis / in vivo metabolic stability in BALB/c mice; set-up: species or system mouse
Experimental: Venous blood samples were collected at 5, 15, 30, and 60 min p.i. via the mouse tail vein and further processed. Blood cells were separated by centrifugation (13,000 rpm × 5 min). Precipitation of proteins in the supernatant was achieved by the addition of 2 volume parts of MeOH, and the samples were centrifuged again (13,000 rpm × 5 min). Fractions of blood cells, proteins, and plasma were measured in a Wizard gamma counter to determine radioactivity per sample. The clear plasma supernatant was injected onto a Shimadzu HPLC system.
The samples were analyzed using a Phenomenex Luna 10u C18 [2] 100 A, 250 × 4.6 mm column at a constant flow rate of 1 mL min^−1 and the following gradient with water/0.2 % TFA as solvent A and CH3CN as solvent B: 0–7.5 min 20 % B, 7.5–15 min gradient to 90 % B, 15–20 min 90 % B.

PSMA− PC3 cells = assay: Cell-specific internalization experiment in PC3 cells; type: cell-based; conditions: 60 min, 37 °C
Experimental: as §1

PSMA− PC3 tumor [4] = assay: Dynamic PET imaging in PC3 tumor-bearing BALB/c nude mice; type: in vivo, mouse; conditions: 60 min p.i.
Experimental: PET imaging experiments were carried out in LNCaP and PC3 tumor-bearing Balb/c nude mice (Charles River Laboratories, Quebec, Canada). Male Balb/c nude mice were housed under standard conditions with free access to standard food and tap water. LNCaP and PC3 cells (5 × 10^6 cells in 100 μL of PBS) were injected into the upper left flank of the mice (20–24 g). Before injecting LNCaP cells, the mice received a 1.0-mg/pellet containing testosterone in a 60-day release preparation (Innovative Research of America, Sarasota, FL, USA). The pellet was implanted subcutaneously into the upper right flank in order to provide a constant level of testosterone needed by the androgen receptor positive LNCaP cells. Tumors reached sizes of approximately 1 cm^3 which were suitable for all in vivo experiments. General anesthesia of tumor-bearing mice was induced with inhalation of isoflurane in 40 % oxygen/60 % nitrogen (gas flow = […]), and the mice were subsequently fixed in prone position. The body temperature was kept constant at 37 °C for the entire experiment. The mice were positioned in a prone position into the center of the field of view. A transmission scan for attenuation correction was not acquired. […] Mean standardized uptake values [SUV]mean = (activity/mL tissue)/(injected activity/body weight), mL/g, were calculated for each ROI. […] All semi-quantified PET data are presented as means ± SEM. […]

PSMA− PC3 tumor [5] = assay: Tracer kinetic analysis (reversible two-tissue compartmental model), PC3 tumors; type: in vivo, mouse
Experimental: (§2) Tracer kinetic analysis was performed using a two-tissue compartmental model using dynamically acquired PET imaging data. Full details on tracer kinetic analysis are given in the Additional file 1. […] Tracer kinetic analysis was carried out with PET imaging data acquired dynamically from PSMA+ LNCaP and PSMA− PC3 tumor-bearing mice (see Fig. 7). Four kinetic parameters (K1, k2, k3, k4) describing the flow of the radiotracer from the blood to the tissue (K1) and from the tissue into the blood (k2), binding of the radiotracer to the tissue (k3) and dissociation from the tissue (k4), were calculated. The analysis was performed by fitting the measured TACs with a two-exponential model of the general form as described, e.g., by van den Hoff (Additional file 1: Figure S2). Tracer kinetic analysis was performed using a two-tissue compartmental model using dynamically acquired PET imaging data. A volume of interest (VOI) was defined for the tumor using the Rover software (ABX GmbH, Dresden, Germany) by applying a threshold of 50% SUVmax within an ellipsoid mask around the tumor on an image representing the average of the last 40 min of the acquisition (i.e. excluding the tracer uptake phase). Image derived input functions were obtained from regions around the heart, defined by the injected blood bolus visible in the first few time fames of the dynamic acquisitions, using a threshold of 75% of SUVmax in that region. Four kinetic parameters (K1, k2, k3, k4) and the fractional blood volume (fbv) which accounts for the non-zero vascular space within the tumor ROI, describe the model. The analysis was carried out by fitting the measured tumor time-activity curves (TACs) with a two-exponential model of the general form: The fit of equation [1] to the experimentally acquired tumor TACs was implemented in Matlab (The Mathworks, Inc., v. R2014b), utilizing a Nelder-Mead simplex direct search. The fit was governed by the minimization of the sum over all time points of square differences between the measured values and the model prediction (Figure S2).

[6] = Stability of the product in saline (quality control); type: physicochemical; conditions: up to 4 h
Experimental: Radio-TLC analysis on silica gel plates gave a Rf value of 0.6 in 95 % CH3CN/H2O (Additional file 1: Figure S4).
[^18F]fluoride. Radio-TLC analysis on silica gel plates gave a Rf value of 0.6 in 95 % CH3CN/H2O (Additional file 1: Figure S4), and the product was stable (>95 %) in saline of up to 4 h.

PSMA+ LNCaP tumor [7] = assay: Tracer kinetic analysis (reversible two-tissue compartmental model), LNCaP tumors; type: in vivo, mouse
Experimental: as §2

[8] = LNCaP, two-tissue compartmental model

storage time without significant decomposition [1]: at least 3 months
Structure (SMILES): CC(C)(C)OC(=O)CCC(NC(=O)NC(CCCCNC(=O)c1ccc([N+](C)(C)C)nc1)C(=O)OC(C)(C)C)C(=O)OC(C)(C)C (centres unmarked) [Compound 9]

Structure (SMILES): O=C(O)CC[C@H](NC(=O)N[C@@H](CCCCNC(=O)c1ccc(F)nc1)C(=O)O)C(=O)O [DCFPyL, reference compound]
reduction of [18F]DCFPyL radioactivity uptake in LNCaP tumor upon pretreatment with DCFPyL (PSMA+ LNCaP tumor [2]; 60 min p.i., 300 μg DCFPyL before radiotracer): 80%

radiometabolites in plasma (radio-HPLC) ([3]; over 60 min p.i.): no radiometabolites were detected | SUV5min, radioactivity uptake in LNCaP tumors (PSMA+ LNCaP tumor [2]; 5 min p.i., dynamic PET): 0.95 | SUV60min, muscle as reference tissue (PSMA+ LNCaP tumor [2]; 60 min p.i.): 0.06 | SUV60min, radioactivity uptake in LNCaP tumor (control) (PSMA+ LNCaP tumor [2]; 60 min p.i., dynamic PET): 1.1 and 1.1 ± 0.1 | SUV60min, LNCaP tumor, blocked (PSMA+ LNCaP tumor [2]; 60 min p.i., pre-dosed with 300 μg nonradioactive DCFPyL): 0.22 and 0.2 ± 0.05 | SUV60min, radioactivity uptake in PC3 tumors (PSMA− PC3 tumor [4]): 0.11 and 0.1 | k3 (binding of radiotracer to tissue) (PSMA− PC3 tumor [5]): 0.008 | stability of product in saline [6]: > 95% | k3 (binding of radiotracer to tissue) (PSMA+ LNCaP tumor [7]; [8]): 0.08 min⁻¹ and 0.082 min⁻¹
Structure (SMILES): O=C(O)CCC(NC(=O)NC(CCCCNC(=O)c1ccc([18F])nc1)C(=O)O)C(=O)O [[^18F]DCFPyL, (S)-2-[3-((S)-1-carboxy-5-[3-(6-fluoropyridine)carbonyl)amino)pentyl)ureido]-pentanedioic acid]
radioactivity uptake, internalized fraction (PSMA+ LNCaP cells; 60 min, 37 °C): 35.05 ± 0.69 % of total uptake/mg protein | radioactivity uptake, membrane-bound fraction (PSMA+ LNCaP cells; 60 min, 37 °C): 45.47 ± 1.01 % of total uptake/mg protein | fraction of internalized radioactivity (PSMA+ LNCaP cells; 60 min incubation): 44% | radiometabolites in urine (radio-HPLC) ([3]; 60 min p.i.): contained only parent compound; also recorded: no radiometabolites were detected | binding to plasma proteins (distribution in blood) ([3]; n = 3): low binding of the radiotracer to blood cells and plasma proteins; also recorded: only minimal binding to plasma proteins | radioactivity uptake, internalized fraction (PSMA− PC3 cells): 0.76 ± 0.05 % of total uptake/mg protein | radioactivity uptake, membrane-bound fraction (PSMA− PC3 cells): 4.30 ± 0.40 % of total uptake/mg protein | coefficient k3/(k3 + k2), fraction entering the second compartment (PSMA− PC3 tumor [5]): 0.058 | net delivery K1/k2 (PSMA− PC3 tumor [5]): 0.49 | retention k3/k4 (PSMA− PC3 tumor [5]): 0.13 | coefficient k3/(k3 + k2), fraction entering the second compartment (PSMA+ LNCaP tumor [7]; LNCaP tumors): 0.314 | retention k3/k4 (PSMA+ LNCaP tumor [7]; LNCaP tumors): 20.5 | K1 (flow of radiotracer from blood to tissue) (PSMA+ LNCaP tumor [7]; [8]): 0.12 min⁻¹ | k2 (flow from tissue into blood) (PSMA+ LNCaP tumor [7]; [8]): 0.18 min⁻¹ | k4 (dissociation from tissue) (PSMA+ LNCaP tumor [7]; [8]): 0.004 min⁻¹
